What was measured:
COX-1 = biological target: T1, COX-1 (Ovis aries, UniProt P05979); assay: COX (ovine) inhibitor screening assay kit; […] inhibition at […]; format: biochemical
T1 construct: gene PTGS1
T1 sequence (P05979 25-600): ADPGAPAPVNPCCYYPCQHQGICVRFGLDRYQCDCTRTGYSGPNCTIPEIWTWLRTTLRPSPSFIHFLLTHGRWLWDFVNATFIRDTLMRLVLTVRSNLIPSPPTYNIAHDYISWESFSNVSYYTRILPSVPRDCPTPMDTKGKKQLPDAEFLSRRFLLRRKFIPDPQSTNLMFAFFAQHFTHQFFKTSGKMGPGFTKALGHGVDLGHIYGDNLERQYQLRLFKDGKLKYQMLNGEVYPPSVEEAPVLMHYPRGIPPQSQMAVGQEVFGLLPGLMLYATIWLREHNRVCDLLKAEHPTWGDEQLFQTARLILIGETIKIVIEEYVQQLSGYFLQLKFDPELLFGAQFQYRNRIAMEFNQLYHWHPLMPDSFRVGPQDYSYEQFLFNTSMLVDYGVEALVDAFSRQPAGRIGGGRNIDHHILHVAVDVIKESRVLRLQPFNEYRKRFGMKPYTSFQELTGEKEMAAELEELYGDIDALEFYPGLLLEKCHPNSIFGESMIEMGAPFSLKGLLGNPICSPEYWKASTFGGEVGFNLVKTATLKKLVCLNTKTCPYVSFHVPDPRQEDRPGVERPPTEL

COX-2 = biological target: T2, COX-2 (Ovis aries, UniProt P79208); assay: COX (ovine) inhibitor screening assay kit, PGF2α produced by SnCl2 reduction of COX-derived PGH2, read at […] nm; format: biochemical
T2 construct: gene PTGS2
T2 sequence (P79208 17-603): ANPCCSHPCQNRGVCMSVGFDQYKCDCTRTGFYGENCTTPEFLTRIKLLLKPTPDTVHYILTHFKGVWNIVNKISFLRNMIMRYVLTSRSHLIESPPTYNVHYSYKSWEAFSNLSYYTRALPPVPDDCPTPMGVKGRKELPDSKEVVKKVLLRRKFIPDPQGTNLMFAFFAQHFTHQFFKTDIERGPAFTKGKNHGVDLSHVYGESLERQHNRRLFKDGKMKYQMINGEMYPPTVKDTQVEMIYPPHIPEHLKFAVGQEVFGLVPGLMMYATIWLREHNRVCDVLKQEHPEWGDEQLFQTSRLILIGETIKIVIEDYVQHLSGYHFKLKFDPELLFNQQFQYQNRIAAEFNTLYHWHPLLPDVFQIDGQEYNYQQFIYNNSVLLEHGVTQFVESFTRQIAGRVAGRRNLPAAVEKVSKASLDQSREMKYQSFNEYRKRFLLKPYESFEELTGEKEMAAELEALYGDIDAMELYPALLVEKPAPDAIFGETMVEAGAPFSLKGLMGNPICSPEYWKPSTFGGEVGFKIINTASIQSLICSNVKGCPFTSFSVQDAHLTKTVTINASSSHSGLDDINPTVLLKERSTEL

`C=C(C)[C@@H]1CC[C@]2(CO)CC[C@]3(C)[C@H](CC[C@@H]4[C@@]5(C)CC[C@H](O)C(C)(C)[C@@H]5CC[C@]43C)[C@@H]12` [AN-10] gave an IC50 (COX-1) greater than 10 µM and an IC50 (COX-2) of less than 1 µM.
